Test results from patent publication US10072026B2, “Crystalline form of 3-((1R,3s,5S)-3-((7-((5-methyl-1H-pyrazol-3-yl)amino)-1,6-naphthyridin-5-yl)amino)-8-azabicyclo[3.2.1]octan-8-yl)propanenitrile” (priority 2015, dated 2018).
Read-outs that look alike come from different tables or passages of the source.

Tests used:
JAK1 = JAK1 (Homo sapiens (Human), UniProt P23458); assay: LanthaScreen JAK biochemical assay (JAK1)
JAK2 = JAK2 (Homo sapiens (Human), UniProt O60674); assay: LanthaScreen JAK biochemical assay (JAK2)
[1] = test system: IL-4 induced STAT6 phosphorylation in THP-1 human monocytic cells; assay: Cellular JAK potency assay, THP-1
[2] = IL-4 induced STAT6 phosphorylation, THP-1 cells
[3] = read-out: JAK 1 (pKi) (converted)
[4] = read-out: JAK 2 (pKi) (converted)
[5] = Homo sapiens, THP-1, read-out: THP-1 IL4 pIC50 (converted)
[6] = THP-1 cells, IL-4 induced STAT6 phosphorylation

Sequence of JAK2 (O60674 whole entry): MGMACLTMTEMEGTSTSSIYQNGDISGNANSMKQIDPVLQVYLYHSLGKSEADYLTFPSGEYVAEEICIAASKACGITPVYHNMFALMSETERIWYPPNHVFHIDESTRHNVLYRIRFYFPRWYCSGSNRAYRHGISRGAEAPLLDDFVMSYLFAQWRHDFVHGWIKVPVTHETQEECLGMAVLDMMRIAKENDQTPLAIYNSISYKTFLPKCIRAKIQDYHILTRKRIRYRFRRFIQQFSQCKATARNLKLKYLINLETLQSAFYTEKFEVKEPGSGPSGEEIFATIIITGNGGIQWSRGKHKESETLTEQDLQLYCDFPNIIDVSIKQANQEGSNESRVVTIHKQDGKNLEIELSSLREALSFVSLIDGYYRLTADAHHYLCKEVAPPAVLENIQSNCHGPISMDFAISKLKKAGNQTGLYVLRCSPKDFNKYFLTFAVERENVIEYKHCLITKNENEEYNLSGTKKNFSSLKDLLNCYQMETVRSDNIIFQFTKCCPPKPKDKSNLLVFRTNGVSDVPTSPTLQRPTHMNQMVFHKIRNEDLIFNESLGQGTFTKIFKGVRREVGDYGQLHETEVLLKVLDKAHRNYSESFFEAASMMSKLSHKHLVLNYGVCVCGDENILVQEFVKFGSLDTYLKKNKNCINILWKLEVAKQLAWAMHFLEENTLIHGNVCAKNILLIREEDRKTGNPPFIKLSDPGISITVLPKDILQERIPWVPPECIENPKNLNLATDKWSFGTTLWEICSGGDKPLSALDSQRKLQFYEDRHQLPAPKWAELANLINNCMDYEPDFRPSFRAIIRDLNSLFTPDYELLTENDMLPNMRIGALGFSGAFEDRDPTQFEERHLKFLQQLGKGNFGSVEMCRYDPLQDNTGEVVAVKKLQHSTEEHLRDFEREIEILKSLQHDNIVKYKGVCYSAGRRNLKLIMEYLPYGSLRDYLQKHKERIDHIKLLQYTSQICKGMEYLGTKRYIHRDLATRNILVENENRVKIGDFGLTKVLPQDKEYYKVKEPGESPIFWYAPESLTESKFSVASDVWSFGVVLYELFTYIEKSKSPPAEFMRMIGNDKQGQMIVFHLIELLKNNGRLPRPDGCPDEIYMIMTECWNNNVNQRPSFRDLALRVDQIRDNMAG
Sequence of JAK1 (P23458 whole entry): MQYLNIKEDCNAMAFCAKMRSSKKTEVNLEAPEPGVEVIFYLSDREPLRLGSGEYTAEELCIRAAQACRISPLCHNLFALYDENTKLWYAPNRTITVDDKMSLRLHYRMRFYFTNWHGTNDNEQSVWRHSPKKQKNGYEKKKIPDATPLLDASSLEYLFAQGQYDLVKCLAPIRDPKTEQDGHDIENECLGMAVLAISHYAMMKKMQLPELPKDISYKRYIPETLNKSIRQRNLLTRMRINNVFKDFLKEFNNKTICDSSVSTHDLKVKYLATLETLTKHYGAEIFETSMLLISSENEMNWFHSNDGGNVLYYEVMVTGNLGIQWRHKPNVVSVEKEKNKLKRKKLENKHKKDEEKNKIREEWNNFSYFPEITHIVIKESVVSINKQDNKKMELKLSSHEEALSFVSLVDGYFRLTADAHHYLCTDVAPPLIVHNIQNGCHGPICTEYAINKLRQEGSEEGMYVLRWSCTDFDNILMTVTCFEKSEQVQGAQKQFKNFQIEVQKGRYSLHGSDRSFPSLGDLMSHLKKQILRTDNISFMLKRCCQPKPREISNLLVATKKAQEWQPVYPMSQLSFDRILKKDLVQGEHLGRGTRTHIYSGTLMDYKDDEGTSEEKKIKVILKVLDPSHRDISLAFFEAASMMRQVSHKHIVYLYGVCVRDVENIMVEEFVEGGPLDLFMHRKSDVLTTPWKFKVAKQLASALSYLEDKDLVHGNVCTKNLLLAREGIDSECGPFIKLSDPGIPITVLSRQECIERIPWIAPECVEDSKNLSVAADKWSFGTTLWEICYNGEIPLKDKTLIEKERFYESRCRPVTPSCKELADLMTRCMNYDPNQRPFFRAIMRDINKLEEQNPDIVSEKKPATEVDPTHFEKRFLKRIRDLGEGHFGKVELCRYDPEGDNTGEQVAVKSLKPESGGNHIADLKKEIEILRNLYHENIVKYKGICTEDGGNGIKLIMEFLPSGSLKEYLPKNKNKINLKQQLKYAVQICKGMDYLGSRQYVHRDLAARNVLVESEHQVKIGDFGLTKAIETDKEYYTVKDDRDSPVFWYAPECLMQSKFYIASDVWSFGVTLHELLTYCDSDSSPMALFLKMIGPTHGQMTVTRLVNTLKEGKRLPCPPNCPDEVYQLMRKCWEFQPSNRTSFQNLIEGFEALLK

Row | Structure (SMILES) | JAK 1 (pKi) (JAK1) | JAK 2 (pKi) (JAK2) | THP-1 IL4 pIC50 [1, 2] | other results
1 | Cc1cc(Nc2cc3ncccc3c(N[C@@H]3C[C@H]4CC[C@@H](C3)N4CC(=O)OC(C)C)n2)n[nH]1 [Example 1-4] | B (B represents a pKi value between 9 and 10 (Ki between 1 nM and 0.1 nM)) | B (B represents a pKi value between 9 and 10 (Ki between 1 nM and 0.1 nM)) | B (B represents a pEC50 value between 6.7 and 7.5 (EC50 between 200 nM and 32 nM)) | 
2 | Cc1cc(Nc2cc3ncccc3c(N[C@@H]3C[C@H]4CC[C@@H](C3)N4CC(=O)OC(C)(C)C)n2)n[nH]1 [Example 1-5] | B (B represents a pKi value between 9 and 10 (Ki between 1 nM and 0.1 nM)) | B (B represents a pKi value between 9 and 10 (Ki between 1 nM and 0.1 nM)) | B (B represents a pEC50 value between 6.7 and 7.5 (EC50 between 200 nM and 32 nM)) | 
3 | CNC(=O)CN1[C@@H]2CC[C@H]1C[C@H](Nc1nc(Nc3cc(C)[nH]n3)cc3ncccc13)C2 [Example 1-7] | B (B represents a pKi value between 9 and 10 (Ki between 1 nM and 0.1 nM)) | B (B represents a pKi value between 9 and 10 (Ki between 1 nM and 0.1 nM)) | C (C represents a pEC50 value<6.7 (EC50>200 nM)) | 
4 | Cc1cc(Nc2cc3ncccc3c(N[C@@H]3C[C@H]4CC[C@@H](C3)N4CCC(F)(F)F)n2)n[nH]1 [Example 1-10] | B (B represents a pKi value between 9 and 10 (Ki between 1 nM and 0.1 nM)) | B (B represents a pKi value between 9 and 10 (Ki between 1 nM and 0.1 nM)) | C (C represents a pEC50 value<6.7 (EC50>200 nM)) | 
5 | Cc1cc(Nc2cc3ncccc3c(N[C@@H]3C[C@H]4CC[C@@H](C3)N4Cc3cccnc3)n2)n[nH]1 [Example 1-16] | B (B represents a pKi value between 9 and 10 (Ki between 1 nM and 0.1 nM)) | B (B represents a pKi value between 9 and 10 (Ki between 1 nM and 0.1 nM)) | B (B represents a pEC50 value between 6.7 and 7.5 (EC50 between 200 nM and 32 nM)) | 
6 | Cc1cc(Nc2cc3ncccc3c(N[C@@H]3C[C@H]4CC[C@@H](C3)N4CC3CCOCC3)n2)n[nH]1 [Example 1-20] | B (B represents a pKi value between 9 and 10 (Ki between 1 nM and 0.1 nM)) | B (B represents a pKi value between 9 and 10 (Ki between 1 nM and 0.1 nM)) | B (B represents a pEC50 value between 6.7 and 7.5 (EC50 between 200 nM and 32 nM)) | 
7 | Cc1cc(Nc2cc3ncccc3c(N[C@@H]3C[C@H]4CC[C@@H](C3)N4C3CCOC3=O)n2)n[nH]1 (some centres unmarked) [Example 1-26] |  |  |  | Ki (JAK1; [3]): 0.1 to 1 nM; Ki (JAK2; [4]): 0.1 to 1 nM
8 | Cc1cc(Nc2cc3ncccc3c(N[C@@H]3C[C@H]4CC[C@@H](C3)N4C3CCOC3=O)n2)n[nH]1 (some centres unmarked) [Example 1-27] | B (B represents a pKi value between 9 and 10 (Ki between 1 nM and 0.1 nM)) | B (B represents a pKi value between 9 and 10 (Ki between 1 nM and 0.1 nM)) |  | 
9 | COC(=O)CN1[C@@H]2CCC[C@H]1C[C@H](Nc1nc(Nc3cc(C)[nH]n3)cc3ncccc13)C2 [Example 1-32] |  | A (A represents a pKi value≥10 (Ki≤0.1 nM)) | C (C represents a pEC50 value<6.7 (EC50>200 nM)) | 
10 | Cc1cc(Nc2cc3ncccc3c(N[C@@H]3C[C@H]4CCC[C@@H](C3)N4CC(=O)OC(C)(C)C)n2)n[nH]1 [Example 1-36] | B (B represents a pKi value between 9 and 10 (Ki between 1 nM and 0.1 nM)) | B (B represents a pKi value between 9 and 10 (Ki between 1 nM and 0.1 nM)) | B (B represents a pEC50 value between 6.7 and 7.5 (EC50 between 200 nM and 32 nM)) | 
11 | Cc1cc(Nc2cc3ncccc3c(N[C@@H]3C[C@H]4CCC[C@@H](C3)N4Cc3ccncc3)n2)n[nH]1 [Example 1-48] | A (A represents a pKi value≥10 (Ki≤0.1 nM)) | A (A represents a pKi value≥10 (Ki≤0.1 nM)) | B (B represents a pEC50 value between 6.7 and 7.5 (EC50 between 200 nM and 32 nM)) | 
12 | Cc1cc(Nc2cc3ncccc3c(N[C@@H]3C[C@H]4CCC[C@@H](C3)N4C3CCCOC3=O)n2)n[nH]1 (some centres unmarked) [Example 1-53] | B (B represents a pKi value between 9 and 10 (Ki between 1 nM and 0.1 nM)) | B (B represents a pKi value between 9 and 10 (Ki between 1 nM and 0.1 nM)) | B (B represents a pEC50 value between 6.7 and 7.5 (EC50 between 200 nM and 32 nM)) | 
13 | Cc1cc(Nc2cc3ncccc3c(N[C@@H]3C[C@H]4CCC[C@@H](C3)N4C[C@H]3CCC(=O)O3)n2)n[nH]1 [Example 1-57] | B (B represents a pKi value between 9 and 10 (Ki between 1 nM and 0.1 nM)) | B (B represents a pKi value between 9 and 10 (Ki between 1 nM and 0.1 nM)) | B (B represents a pEC50 value between 6.7 and 7.5 (EC50 between 200 nM and 32 nM)) | 
14 | Cc1cc(Nc2cc3ncccc3c(N[C@@H]3C[C@H]4CCC[C@@H](C3)N4CC3COC(=O)O3)n2)n[nH]1 (some centres unmarked) [Example 1-58] |  | A (A represents a pKi value≥10 (Ki≤0.1 nM)) | B (B represents a pEC50 value between 6.7 and 7.5 (EC50 between 200 nM and 32 nM)) | 
15 | Cc1cc(Nc2cc3ncccc3c(N[C@@H]3C[C@H]4CC[C@@H](C3)N4C(=O)C3(C)CCCC3)n2)n[nH]1 [Example 2-10] |  |  |  | Ki (JAK1): 0.1 to 1 nM; Ki (JAK2; [4]): 0.1 to 1 nM; IC50 [1, 5]: 31.6 to 200 nM
16 | Cc1cc(Nc2cc3ncccc3c(N[C@@H]3C[C@H]4CC[C@@H](C3)N4C(=O)Cc3ccccc3)n2)n[nH]1 [Example 2-11] | B (B represents a pKi value between 9 and 10 (Ki between 1 nM and 0.1 nM)) | B (B represents a pKi value between 9 and 10 (Ki between 1 nM and 0.1 nM)) | B (B represents a pEC50 value between 6.7 and 7.5 (EC50 between 200 nM and 32 nM)) | 

Row | Structure (SMILES) | JAK 1 (pKi) (JAK1) | JAK 2 (pKi) (JAK2) | THP-1 IL4 pIC50 [1, 2] | other results
17 | Cc1cc(Nc2cc3ncccc3c(N[C@@H]3C[C@H]4CC[C@@H](C3)N4C(=O)c3ccccc3)n2)n[nH]1 [Example 2-12] |  |  |  | Ki (JAK1; [3]): 0.1 to 1 nM; Ki (JAK2; [4]): 0.1 to 1 nM; IC50 [1, 5]: 31.6 to 200 nM
18 | Cc1cc(Nc2cc3ncccc3c(N[C@@H]3C[C@H]4CC[C@@H](C3)N4C(=O)c3ccncc3)n2)n[nH]1 [Example 2-13] |  |  |  | Ki (JAK1; [3]): 0.1 to 1 nM; Ki (JAK2; [4]): 0.1 to 1 nM; IC50 [1, 5]: 31.6 to 200 nM
19 | Cc1cc(Nc2cc3ncccc3c(N[C@@H]3C[C@H]4CC[C@@H](C3)N4C(=O)c3cccnc3)n2)n[nH]1 [Example 2-14] |  |  |  | Ki (JAK1): 0.1 to 1 nM; Ki (JAK2; [4]): 0.1 to 1 nM; IC50 [1, 5]: > 200 nM
20 | CCC(=O)N1[C@@H]2CCC[C@H]1C[C@H](Nc1nc(Nc3cc(C)[nH]n3)cc3ncccc13)C2 [Example 2-15] | B (B represents a pKi value between 9 and 10 (Ki between 1 nM and 0.1 nM)) | B (B represents a pKi value between 9 and 10 (Ki between 1 nM and 0.1 nM)) | A (A represents a pEC50 value≥7.5 (EC50≤32 nM)) | 
21 | COC(=O)C1(C(=O)N2[C@@H]3CCC[C@H]2C[C@H](Nc2nc(Nc4cc(C)[nH]n4)cc4ncccc24)C3)CC1 [Example 2-21] |  | B (B represents a pKi value between 9 and 10 (Ki between 1 nM and 0.1 nM)) | B (B represents a pEC50 value between 6.7 and 7.5 (EC50 between 200 nM and 32 nM)) | 
22 | Cc1cc(Nc2cc3ncccc3c(N[C@@H]3C[C@H]4CCC[C@@H](C3)N4C(=O)C3(C)CCCC3)n2)n[nH]1 [Example 2-23] |  | B (B represents a pKi value between 9 and 10 (Ki between 1 nM and 0.1 nM)) | B (B represents a pEC50 value between 6.7 and 7.5 (EC50 between 200 nM and 32 nM)) | 
23 | CCOC(=O)N1[C@@H]2CC[C@H]1C[C@H](Nc1nc(Nc3cc(C)[nH]n3)cc3ncccc13)C2 [Example 3-1] |  |  |  | Ki (JAK1; [3]): 0.1 to 1 nM; Ki (JAK2; [4]): 0.1 to 1 nM; IC50 [1, 5]: < 31.6 nM
24 | Cc1cc(Nc2cc3ncccc3c(N[C@@H]3C[C@H]4CC[C@@H](C3)N4C(=O)OC(C)C)n2)n[nH]1 [Example 3-2] |  |  |  | Ki (JAK1): 0.1 to 1 nM; Ki (JAK2): 0.1 to 1 nM; IC50 [1, 5]: < 31.6 nM
25 | Cc1cc(Nc2cc3nc(CN4CCOCC4)ccc3c(N[C@@H]3C[C@H]4CC[C@@H](C3)N4CCC#N)n2)n[nH]1 [Example 5-18] |  | A (A represents a pKi value≥10 (Ki≤0.1 nM)) | B (B represents a pEC50 value between 6.7 and 7.5 (EC50 between 200 nM and 32 nM)) | 
26 | Cc1cc(Nc2cc3nc(CN4CCOCC4)ccc3c(N[C@@H]3C[C@H]4CCC[C@@H](C3)N4CC(F)(F)F)n2)n[nH]1 [Example 5-29] |  | A (A represents a pKi value≥10 (Ki≤0.1 nM)) | B (B represents a pEC50 value between 6.7 and 7.5 (EC50 between 200 nM and 32 nM)) | 
27 | Cc1cnc2cc(Nc3cc(C)[nH]n3)nc(N[C@@H]3C[C@H]4CCC[C@@H](C3)N4C(=O)OCC(C)C)c2c1 [Example 6-7] |  | B (B represents a pKi value between 9 and 10 (Ki between 1 nM and 0.1 nM)) |  | THP-1 IL4 pIC50 [1, 6]: B (B represents a pEC50 value between 6.7 and 7.5 (EC50 between 200 nM and 32 nM))
28 | COC(=O)c1cnc2cc(Nc3cc(C)[nH]n3)nc(N[C@@H]3C[C@H]4CC[C@@H](C3)N4C(=O)C(F)F)c2c1 [Example 6-37] |  |  |  | Ki (JAK1; [3]): 0.1 to 1 nM; Ki (JAK2; [4]): 0.1 to 1 nM
29 | COc1ccnc2cc(Nc3cc(C)[nH]n3)nc(N[C@@H]3C[C@H]4CC[C@@H](C3)N4C(=O)OCC(C)C)c12 [Example 7-1] | B (B represents a pKi value between 9 and 10 (Ki between 1 nM and 0.1 nM)) |  |  | THP-1 IL4 pIC50 [1, 6]: B (B represents a pEC50 value between 6.7 and 7.5 (EC50 between 200 nM and 32 nM))
30 | Cc1cc(Nc2nc(N[C@@H]3C[C@H]4CCC[C@@H](C3)N4C(=O)CN(C)C)c3cccnc3c2F)n[nH]1 [Example 8-15] | B (B represents a pKi value between 9 and 10 (Ki between 1 nM and 0.1 nM)) |  |  | THP-1 IL4 pIC50 [1, 6]: C (C represents a pEC50 value<6.7 (EC50>200 nM))
31 | COC(=O)c1cnc2cc(Nc3cc(C)[nH]n3)nc(N[C@@H]3C[C@H]4CC[C@@H](C3)N4C3CCCOC3=O)c2c1 (stereo partly drawn) [Example 16, Methyl 7-((5-methyl-1H-pyrazol-3-yl)amino)-5-(((1R,3s,5S)-8-(2-oxotetrahydro-2H-pyran-3-yl)-8-azabicyclo[3.2.1]octan-3-yl)amino)-1,6-naphthyridine-3-carboxylate] |  |  |  | Ki (JAK1; [3]): 0.1 to 1 nM; IC50 [1, 5]: 31.6 to 200 nM
